In paper PMC6348443 (Journal of Medicinal Chemistry, 2018):
Structures can show the parent of a compound that is named as a salt. Where two headings read alike, the source gives them in different places.

Key:
DOR [1] = biological target: T1, DOR (Rattus norvegicus, UniProt P33533); assay: competition radioligand binding, rat brain membranes, [3H][Ile5,6]deltorphin II; details: for Ki: rat brain membranes, read-out: opioid receptor binding Ki DOR
T1 construct: Membranes were prepared from Sprague-Dawley rat brains or guinea-pig brains according to the described procedures; tissue Labortierkunde und Laborgenetik, Medizinische Universität Wien; host or cells: Sprague-Dawley rat brain without cerebella

KOR = biological target: T2, KOR (Cavia porcellus, UniProt P41144); assay: competition radioligand binding, guinea-pig brain membranes, [3H]U69,593; details: guinea-pig brain membranes; read-out: opioid receptor binding Ki KOR
T2 construct: Membranes were prepared from Sprague-Dawley rat brains or guinea-pig brains according to the described procedures; tissue Labortierkunde und Laborgenetik, Medizinische Universität Wien; host or cells: guinea-pig brain without cerebella

MOR = biological target: T3, MOR (Homo sapiens, UniProt P35372); assay: [35S]GTPγS binding assay, CHO-hMOR membranes; format: biochemical; details: for EC50: [35S]GTPγS, CHO human MOR membranes, read-out: MOR EC50; for Emax: relative to reference full agonist DAMGO, read-out: MOR % stim.
T3 construct: host or cells: CHO (CHO-hMOR)

DOR [2] = biological target: T4, DOR (Homo sapiens, UniProt P41143); assay: competition radioligand binding, CHO cell membranes expressing human DOR, [3H]diprenorphine
T4 construct: host or cells: CHO (CHO-hDOR)

[3] = tested on: peripheral opioid receptors; assay: antagonism by naloxone methiodide in the acetic acid-induced writhing assay; format: in vivo, mouse; details: sc co-administration with naloxone methiodide 1 mg/kg; agonist 50 or 200 μg/kg sc; 30 min
Text: To determine whether targeted 6-amino acid and 6-dipeptide analogues inhibit writhing behavior in mice through peripheral opioid receptors activation, we used naloxone methiodide.[27]
Values are shown as mean of writhes ± SEM (n = 6–7 mice per group). ***P < 0.001 vs control group; ^#P < 0.05, ^##P < 0.01 and ^###P < 0.001 vs agonist treated group, ANOVA with Tukey’s post hoc test.
Writhing was induced in male CD1 mice by ip injection of a 0.6% acetic acid aqueous solution as described previously.[48],[62] Groups of mice were administered sc different doses of test compound or saline (control), and 5 min prior to testing (25 min after drug or saline), each animal received an ip injection of acetic acid solution. Each mouse was placed in individual transparent Plexiglas chambers, and the number of writhes was counted during a 10 min observation period. […] For the antagonism study, naloxone methiodide was sc co-administered with the respective opioid agonist, and writhing was assessed as described above.

## CO[C@@]12CC[C@H](N[C@H](C(=O)N[C@@H](Cc3ccc(O)cc3)C(=O)O)C(C)C)[C@@H]3Oc4c(O)ccc5c4[C@@]31CCN(C)[C@@H]2C5 [Compound 22a, (2S)-2-[[(4,5α-Epoxy-3-hydroxy-14β-methoxy-17-methylmorphinan-6α-yl)amino]-(2S)-3-methylbutyrylamino]-3-(4-hydroxyphenyl)propionic Acid]
DOR [1]
  Ki: 1.19 ± 0.42 nM
KOR
  Ki: 69 ± 2.5 nM
MOR
  EC50: 0.89 ± 0.04 nM
  Emax: ~80%
MOR; full agonist ≥85% of the response to DAMGO
  functional profile at MOR (full/partial agonist): partial agonists
DOR [2]; CHO cell membranes expressing human DOR, read-out: Ki DOR
  Ki: 1.46 ± 0.59 nM
[3]
  effect of naloxone methiodide on antinociceptive effect: reversed

## CC[C@H](N[C@H]1CC[C@@]2(OC)[C@H]3Cc4ccc(O)c5c4[C@@]2(CCN3C)[C@H]1O5)C(=O)O [Compound 19a, (2S)-2-[(4,5α-Epoxy-3-hydroxy-14β-methoxy-17-methylmorphinan-6α-yl)amino]-2-ethylacetic Acid Dihydrochloride]
DOR [1]
  Ki: 37.5 ± 3.4 nM
DOR [1]; rat brain, 18a vs 18b, 19a vs 19b
  decreased DOR affinity vs 6β analogue: 29 times
KOR
  Ki: 144 ± 7 nM
MOR
  EC50: 5.12 ± 0.09 nM
  Emax: 88 ± 2%
DOR [2]
  Ki: 38 ± 15.4 nM
[3]
  effect of naloxone methiodide on antinociceptive effect: reversed
